Results as given in PubChem BioAssay (NCI).
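Step 1: Grow cells in 96-well plates. Step 2: Expose to compound for 48 hours at 5 concentrations. Step 3: Interpolate endpoints linearly; if unreached, use highest concentration. Abbreviation: GI50, concentration required for 50% inhibition of growth. The concentration for full growth arrest is given as TGI.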

Key:
Test in all cases: NCI tumour cell line growth inhibition, 48 h
IGROV1 ovarian = test system: IGROV1 ovarian
HL-60(TB) leukemia = test system: HL-60(TB) leukemia
ACHN renal = test system: ACHN renal
PC-3 prostate = test system: PC-3 prostate
K-562 leukemia = test system: K-562 leukemia
U251 CNS = test system: U251 CNS
SK-OV-3 ovarian = test system: SK-OV-3 ovarian
SF-295 CNS = test system: SF-295 CNS
CCRF-CEM leukemia = test system: CCRF-CEM leukemia
T-47D breast = test system: T-47D breast
MCF7 breast = test system: MCF7 breast
HCT-116 colon = test system: HCT-116 colon
CAKI-1 renal = test system: CAKI-1 renal
UACC-257 melanoma = test system: UACC-257 melanoma
DU-145 prostate = test system: DU-145 prostate
TK-10 renal = test system: TK-10 renal
MOLT-4 leukemia = test system: MOLT-4 leukemia
UACC-62 melanoma = test system: UACC-62 melanoma
MDA-MB-435 = test system: MDA-MB-435
OVCAR-4 ovarian = test system: OVCAR-4 ovarian
SW-620 colon = test system: SW-620 colon
A498 renal = test system: A498 renal
SNB-19 CNS = test system: SNB-19 CNS
HT29 colon = test system: HT29 colon
M14 melanoma = test system: M14 melanoma
EKVX NSCLC = test system: EKVX NSCLC
LOX IMVI melanoma = test system: LOX IMVI melanoma
NCI-H23 lung = test system: NCI-H23 lung
BT-549 breast = test system: BT-549 breast
RXF 393 renal = test system: RXF 393 renal
SK-MEL-2 melanoma = test system: SK-MEL-2 melanoma
OVCAR-5 ovarian = test system: OVCAR-5 ovarian
HOP-62 NSCLC = test system: HOP-62 NSCLC
MALME-3M melanoma = test system: MALME-3M melanoma
NCI/ADR-RES ovarian = test system: NCI/ADR-RES ovarian
HS 578T breast = test system: HS 578T breast
HCC-2998 colon = test system: HCC-2998 colon
NCI-H460 lung = test system: NCI-H460 lung
SF-539 CNS = test system: SF-539 CNS
SNB-75 CNS = test system: SNB-75 CNS
SF-268 CNS = test system: SF-268 CNS
OVCAR-8 ovarian = test system: OVCAR-8 ovarian
HOP-92 NSCLC = test system: HOP-92 NSCLC
UO-31 renal = test system: UO-31 renal
786-0 renal = test system: 786-0 renal
SR leukemia = test system: SR leukemia
KM12 colon = test system: KM12 colon
RPMI-8226 leukemia = test system: RPMI-8226 leukemia
COLO 205 colon = test system: COLO 205 colon
MDA-MB-231 breast = test system: MDA-MB-231 breast
SN12C renal = test system: SN12C renal
HCT-15 colon = test system: HCT-15 colon
NCI-H522 lung = test system: NCI-H522 lung
SK-MEL-5 melanoma = test system: SK-MEL-5 melanoma
SK-MEL-28 melanoma = test system: SK-MEL-28 melanoma

COc1ccc2c(c1)c(CC(=O)[Se]CC#N)c(C)n2C(=O)c1ccc(Cl)cc1
GI50 (IGROV1 ovarian): 1.7 µM | TGI (IGROV1 ovarian): 3.82 µM | GI50 (HL-60(TB) leukemia): 2.95 µM | TGI (HL-60(TB) leukemia): > 100 µM | GI50 (ACHN renal): 2.11 µM | TGI (ACHN renal): 5.61 µM | GI50 (PC-3 prostate): 2.26 µM | TGI (PC-3 prostate): 7.88 µM | GI50 (K-562 leukemia): 3.17 µM | TGI (K-562 leukemia): > 100 µM | GI50 (U251 CNS): 2.29 µM | TGI (U251 CNS): 6.35 µM | GI50 (SK-OV-3 ovarian): 2.77 µM | TGI (SK-OV-3 ovarian): 8.16 µM | GI50 (SF-295 CNS): 1.72 µM | TGI (SF-295 CNS): 4.2 µM | GI50 (CCRF-CEM leukemia): 2.6 µM | TGI (CCRF-CEM leukemia): > 100 µM | GI50 (T-47D breast): 2.29 µM | TGI (T-47D breast): 6.15 µM | GI50 (MCF7 breast): 2.02 µM | TGI (MCF7 breast): 4.9 µM | GI50 (HCT-116 colon): 0.359 µM | TGI (HCT-116 colon): 1.27 µM | GI50 (CAKI-1 renal): 1.78 µM | TGI (CAKI-1 renal): 3.53 µM | GI50 (UACC-257 melanoma): 2.1 µM | TGI (UACC-257 melanoma): 5.19 µM | GI50 (DU-145 prostate): 1.79 µM | TGI (DU-145 prostate): 3.48 µM | GI50 (TK-10 renal): 2.66 µM | TGI (TK-10 renal): 7.09 µM | GI50 (MOLT-4 leukemia): 3.37 µM | TGI (MOLT-4 leukemia): > 100 µM | GI50 (UACC-62 melanoma): 2.16 µM | TGI (UACC-62 melanoma): 5.56 µM | GI50 (MDA-MB-435): 1.79 µM | TGI (MDA-MB-435): 3.44 µM | GI50 (OVCAR-4 ovarian): 2.18 µM | TGI (OVCAR-4 ovarian): 5.82 µM | GI50 (SW-620 colon): 1.73 µM | TGI (SW-620 colon): 3.99 µM | GI50 (A498 renal): 2.04 µM | TGI (A498 renal): 4.75 µM | GI50 (SNB-19 CNS): 3.81 µM | TGI (SNB-19 CNS): 14.6 µM | GI50 (HT29 colon): 2.01 µM | TGI (HT29 colon): 5.03 µM | GI50 (M14 melanoma): 1.43 µM | TGI (M14 melanoma): 3.02 µM | GI50 (EKVX NSCLC): 1.42 µM | TGI (EKVX NSCLC): 3.45 µM | GI50 (LOX IMVI melanoma): 1.91 µM | TGI (LOX IMVI melanoma): 4.12 µM | GI50 (NCI-H23 lung): 2.36 µM | TGI (NCI-H23 lung): 6.19 µM | GI50 (BT-549 breast): 2.05 µM | TGI (BT-549 breast): 4.68 µM | GI50 (RXF 393 renal): 1.65 µM | TGI (RXF 393 renal): 3.37 µM | GI50 (SK-MEL-2 melanoma): 1.99 µM | TGI (SK-MEL-2 melanoma): 4.5 µM | GI50 (OVCAR-5 ovarian): 1.92 µM | TGI (OVCAR-5 ovarian): 4.03 µM | GI50 (HOP-62 NSCLC): 1.11 µM | TGI (HOP-62 NSCLC): 3.2 µM | GI50 (MALME-3M melanoma): 1.94 µM | TGI (MALME-3M melanoma): 5.21 µM | GI50 (NCI/ADR-RES ovarian): 2.42 µM | TGI (NCI/ADR-RES ovarian): 6.97 µM | GI50 (HS 578T breast): 2.62 µM | TGI (HS 578T breast): 8.91 µM | GI50 (HCC-2998 colon): 1.79 µM | TGI (HCC-2998 colon): 3.5 µM | GI50 (NCI-H460 lung): 1.97 µM | TGI (NCI-H460 lung): 5.47 µM | GI50 (SF-539 CNS): 2.04 µM | TGI (SF-539 CNS): 4.43 µM | GI50 (SNB-75 CNS): 1.91 µM | TGI (SNB-75 CNS): 5.75 µM | GI50 (SF-268 CNS): 2.28 µM | TGI (SF-268 CNS): 5.43 µM | GI50 (OVCAR-8 ovarian): 1.86 µM | TGI (OVCAR-8 ovarian): 3.86 µM | GI50 (HOP-92 NSCLC): 1.75 µM | TGI (HOP-92 NSCLC): 4.7 µM | GI50 (UO-31 renal): 1.18 µM | TGI (UO-31 renal): 3.94 µM | GI50 (786-0 renal): 1.88 µM | TGI (786-0 renal): 3.61 µM | GI50 (SR leukemia): 2.27 µM | TGI (SR leukemia): > 100 µM | GI50 (KM12 colon): 1.46 µM | TGI (KM12 colon): 3.16 µM | GI50 (RPMI-8226 leukemia): 3.04 µM | TGI (RPMI-8226 leukemia): 10.6 µM | GI50 (COLO 205 colon): 1.59 µM | TGI (COLO 205 colon): 3.1 µM | GI50 (MDA-MB-231 breast): 2.2 µM | TGI (MDA-MB-231 breast): 6.6 µM | GI50 (SN12C renal): 3.62 µM | TGI (SN12C renal): 12.7 µM | GI50 (HCT-15 colon): 1.2 µM | TGI (HCT-15 colon): 3 µM | GI50 (NCI-H522 lung): 2.07 µM | TGI (NCI-H522 lung): 4.52 µM | GI50 (SK-MEL-5 melanoma): 1.78 µM | TGI (SK-MEL-5 melanoma): 3.23 µM | GI50 (SK-MEL-28 melanoma): 2.38 µM | TGI (SK-MEL-28 melanoma): 6.92 µM
